The numbers were not newly measured in paper PMC10620911 (ACS Omega, 2023), which cites them from elsewhere.

The conditions of the data set: structure-dependent.

SMILES strings stand for the structures.

In the case of `Cc1noc(-c2ccc(-c3ccc(C4(C(=O)O)CC4)cc3)cc2)c1NC(=O)O[C@H](C)c1ccccc1` [BMS-986020], the hepatobiliary toxicity result is “hepatobiliary toxicity”.
